Results from patent publication US7144919B1, “Polyoxyethylene-polyoxypropylene vitamin E and process for preparation thereof” (priority 2000, dated 2006).

Assay: Anti-oxidation activity: peroxide value of linoleic acid
Conditions: sample 0.5% in linoleic acid, incubator 40° C.
Description: The novel POE-POP vitamin E of the present invention was examined for anti-oxidation activity, using linoleic acid. Readily being oxidized, linoleic acid can be used in determining the ability of an antioxidant of interest to inhibit the oxidation of linoleic acid. Used in this test was reagent-grade linoleic acid that comprised linoleic acid 85% and linolenic acid 15%.
POE-POP vitamin E prepared in Example 1, 2 or 3 was added in an amount of 0.5% to linoleic acid while vitamin E, vitamin E acetate, POE (12EO) vitamin E, POE (24 EO)-cholesterol, POE (20 EO) sorbitan monostearate, and POE (12 EO) nonylphenylether were also used as references. These samples were stored in an incubator maintained at 40° C. After two and ten days of incubation, a peroxide value was determined for each sample. In detail, in 1.0 g of each sample was placed in a 250 ml Erlenmeyer flask and dissolved with 10 ml of chloroform. To the solution, 15 ml of glacial acetic acid and 1 ml of saturated potassium iodide solution were added, and a stopper was put in the flask. After being vigorously shaken, the flask was allowed to stand in a dark place for 5 min. Thereafter, the flask was added with 75 ml of distilled water and vigorously shaken. Free iodine was titrated with a 0.01 N sodium thiosulfate solution, using a starch solution as an indicator. The point at which the solution became colorless was regarded as the end point. The peroxide value was calculated as follows:
[formula] wherein, S: Amount of 0.01 N sodium thiosulfate solution consumed by sample (ml) B: Amount of 0.01 N sodium thiosulfate solution consumed in blank test tube (ml) F: Factor of 0.01 N sodium thiosulfate solution

| Molecule | Peroxide Values (Day 2) | Peroxide Values (Day 10) |
| --- | --- | --- |
| CC(=O)Oc1c(C)c(C)c2c(c1C)CCC(C)(CCC[C@H](C)CCC[C@H](C)CCCC(C)C)O2 (stereo partly shown) [Vitamin E acetate] | 26.2 | 122.3 |
| Vitamin E | 21.6 | 58.9 |
